Reference: patent US20240150339A1, “Compounds and Their Use as PDE4 Activators” (Mironid Limited, priority 2021, published 2024)

The compounds below were run on m-IMCD3 cells (assay: Inhibition of PGE2-stimulated in vitro cyst formation in 3D culture of m-IMCD3 cells). Conditions: Mus musculus, mIMCD3, 144 h; 10 μM test compound; mean cyst area (%) compared to 100% for (DMSO + PGE2) and 0% for DMSO control; 100 nM PGE2; 6 days; read-out: % Cyst area after incubation with 10 μM test compound.
Assay type: cell-based, mouse
Procedure: HEK 293 and MDCK cells (Public Health England, Cell Culture Collections) were maintained in Dulbecco's Modified Eagle's Medium (DMEM) supplemented with 10% (v/v) fetal bovine serum (FBS) (Seralab), 2 mM L-glutamine and 100 U/ml penicillin streptomycin cocktail (ThermoFisher); termed complete media. Clonal HEK 293 cell lines were maintained in complete media supplemented with 0.6 mg/mL G418 (Enzo Life Sciences). Mouse inner medullary collecting duct (m-IMCD3) cells [American Type Culture Collection (ATCC)] were maintained in media consisting of DMEM/Hams F-12 50/50 Mix (DMEM F12; Corning) supplemented with penicillin streptomycin cocktail (100 U/ml) and FBS (10% v/v) (DMEM F12-10% FBS).
The mouse Inner Medullary Collecting Duct cell line (m-IMCD3) spontaneously forms cystic spheroids in 3D culture with a Type 1 collagen/Matrigel extracellular matrix. This process can be stimulated with agents which raise intracellular cAMP, such as PGE2, and is used as an in vitro model for the formation of cystic structures in the kidneys of patients with ADPKD.
Rat Collagen I (Fisher Scientific) is prepared on ice by neutralising with 1M NaOH and diluting with a 2×volume of DMEM/F12+10% FBS for coating plate (coating mix) and a 2.2 volume of DMEM/F12+10% FBS for cell plating (plating mix). This is mixed 1:1.1 with ice cold Matrigel (Corning) for coating plates (coating mix), and 1:0.95 with Matrigel for cell plating (plating mix).
The assay is conducted in the wells of a 96-well plate culture dish using a total volume of 130 μl of collagen/Matrigel/DMEM F12-10% FBS suspension in growth media for each matrix plug per individual well. Initially, 30 μl of collagen/Matrigel/DMEM F12-10% FBS (coating mix) is added into the well of a 96 well plate and the collagen is set to a gel by incubating at 37° C. for at least 15 minutes. A second layer of 100 μl collagen/Matrigel suspension (plating mix) containing m-IMCD3 cells (2.75×10^6 m-IMCD3 cells per 96-well plate) is layered over the coating mix and the collagen/Matrigel/cell mix again set to a gel by incubating at 37° C. Cell cultures are maintained at 37° C. in an atmosphere of 5% CO2, 95% air.
Between 18 and 24h after plating, test compound(s) as DMSO stock solutions [0.1% (v/v) final DMSO concentration] and PGE2 (100 nM final concentration) in DMEM F12-10% FBS are added in quadruplicate wells per condition. Media, togetherwith the test compound and PGE2 are replenished after 2 or 3 days. After 6 days of culture z stack images of the wells are captured using the Nikon Eclipse Ti2-E microscope. Nikon General Analysis software is used to measure the following parameters in each well: the mean cyst area, the number of cysts, and the total cyst area.
PDE4 long form activators inhibited in vitro cyst formation in m-IMCD3 cells. Data are shown in FIG. 2 and Table 5 as mean cyst area (%), compared to 100% for (DMSO+PGE2) and 0% for DMSO control.

Row | Compound | activity at 10 µM
1 | CC(C)(C)N1CCN(c2nc3ccc(C(=O)N[C@H]4CCOc5ccccc54)cc3s2)CC1 [Example 75, (S)-2-(4-(tert-butyl)piperazin-1-yl)-N-(chroman-4-yl)benzo[d]thiazole-6-carboxamide] | -1%
2 | Cc1cc(C(=O)NC2CCCC2)cc2sc(C3CCNCC3)nc12 [Example 181, N-cyclopentyl-4-methyl-2-(piperidin-4-yl)benzo[d]thiazole-6-carboxamide] | 13%
3 | O=C(N[C@H]1CCOc2ccccc21)c1ccc2nc(N3CCN(CCO)CC3)sc2c1 [Example 120, (S)-N-(chroman-4-yl)-2-(4-(2-hydroxyethyl)piperazin-1-yl)benzo[d]thiazole-6-carboxamide] | -5%
4 | CN1CCN(c2nc3ccc(C(=O)N[C@H]4CCOc5ccccc54)cc3s2)CC1 [Example 71, (S)-N-(chroman-4-yl)-2-(4-methylpiperazin-1-yl)benzo[d]thiazole-6-carboxamide] | -1%
5 | Cc1cncc(-c2nc3ccc(C(=O)NCc4cccc(Cl)c4)cc3s2)c1 [Example 34, N-[(3-chlorophenyl)methyl]-2-(5-methylpyridin-3-yl)benzo[d]thiazole-6-carboxamide] | 26%
6 | CCN1CCN(c2nc3ccc(C(=O)NC(C)C)cc3s2)CC1 [Example 82, 2-(4-ethylpiperazin-1-yl)-N-isopropylbenzo[d]thiazole-6-carboxamide] | 6%
7 | O=C(NC1CCC1)c1cc(Cl)c2nc(N3CCNCC3)sc2c1 [Example 234, 4-chloro-N-cyclobutyl-2-(piperazin-1-yl)benzo[d]thiazole-6-carboxamide] | 3%
8 | Cc1ncccc1-c1nc2ccc(C(=O)NCc3cccc(F)c3)cc2s1 [Example 4, N-(3-fluorobenzyl)-2-(2-methylpyridin-3-yl)benzo[d]thiazole-6-carboxamide] | 6%
9 | CN1CCC(c2nc3ccc(S(=O)(=O)NC4CCCC4)cc3s2)CC1 [Example 288, N-cyclopentyl-2-(1-methylpiperidin-4-yl)benzo[d]thiazole-6-sulfonamide] | 11%
10 | O=C(N[C@@H]1CCOc2cc(F)ccc21)c1ccc2nc(N3CCNCC3)sc2c1 [Example 88, (R)-N-(7-fluorochroman-4-yl)-2-(piperazin-1-yl)benzo[d]thiazole-6-carboxamide] | 22%
11 | O=C(NC1CCCC1)c1ccc2sc(C3CCNCC3)nc2c1 [Example 283, N-cyclopentyl-2-(piperidin-4-yl)benzo[d]thiazole-5-carboxamide] | 14%
12 | O=C(NC1CCCC1)c1ccc2nc(C3CCNCC3)sc2c1 [Example 134, N-cyclopentyl-2-(piperidin-4-yl)benzo[d]thiazole-6-carboxamide] | 16%
13 | COc1ccc(CNC(=O)c2ccc3nc(-c4cccnc4C)sc3c2)cc1 [Example 3, N-(4-methoxybenzyl)-2-(2-methylpyridin-3-yl)benzo[d]thiazole-6-carboxamide] | 23%
14 | O=C(NC1CCCC1)c1ccc2nc(N3CCCC4NCCC43)sc2c1 (stereo not shown) [Example 258, N-cyclopentyl-2-(octahydro-4H-pyrrolo[3,2-b]pyridin-4-yl)benzo[d]thiazole-6-carboxamide] | 11%
15 | COc1ccc2c(c1)[C@H](NC(=O)c1ccc3nc(N4CCNCC4)sc3c1)CC2 [Example 107, (R)-N-(6-methoxy-2,3-dihydro-1H-inden-1-yl)-2-(piperazin-1-yl)benzo[d]thiazole-6-carboxamide] | 17%
16 | CCN1CCC(c2nc3ccc(C(=O)NC4CCCC4)c(C)c3s2)CC1 [Example 193, N-cyclopentyl-2-(1-ethylpiperidin-4-yl)-7-methylbenzo[d]thiazole-6-carboxamide] | 2%

Row | Compound | activity at 10 µM
17 | CCN1CC(c2nc3ccc(C(=O)NC4CCCC4)cc3s2)C1 [Example 281, N-cyclopentyl-2-(1-ethylazetidin-3-yl)benzo[d]thiazole-6-carboxamide] | 10%
18 | Cc1ccnc(C)c1-c1nc2ccc(C(=O)N[C@H]3CCOc4ccccc43)cc2s1 [Example 52, (S)-N-(chroman-4-yl)-2-(2,4-dimethylpyridin-3-yl)benzo[d]thiazole-6-carboxamide] | 24%
19 | O=C(NCc1ccc(F)cc1)c1ccc2nc(C3CCNCC3)sc2c1 [Example 124, N-(4-fluorobenzyl)-2-(piperidin-4-yl)benzo[d]thiazole-6-carboxamide] | 11%
20 | O=C(N[C@H]1CCc2ccccc21)c1ccc2nc(N3CCNCC3)sc2c1 [Example 96, (S)-N-(2,3-dihydro-1H-inden-1-yl)-2-(piperazin-1-yl)benzo[d]thiazole-6-carboxamide] | 2%
21 | CCN1CCN(c2nc3c(C)cc(C(=O)NC4CCOCC4)cc3s2)CC1 [Example 210, 2-(4-ethylpiperazin-1-yl)-4-methyl-N-(tetrahydro-2H-pyran-4-yl)benzo[d]thiazole-6-carboxamide] | 3%
22 | CCN1CCC(c2nc3ccc(C(=O)N[C@H]4CCc5ccccc54)c(C)c3s2)CC1 [Example 196, (S)-N-(2,3-dihydro-1H-inden-1-yl)-2-(1-ethylpiperidin-4-vy)-7-methylbenzo[d]thiazole-6-carboxamide] | 10%
23 | Cc1c(C(=O)N[C@H]2CCOc3ccccc32)ccc2nc(N3CCNCC3)sc12 [Example 219, (S)-N-(chroman-4-yl)-7-methyl-2-(piperazin-1-yl)benzo[d]thiazole-6-carboxamide] | 2%
24 | O=C(NC1CCCC1)c1ccc2nc(N3CC4(CNC4)C3)sc2c1 [Example 255, N-cyclopentyl-2-(2,6-diazaspiro[3.3]heptan-2-yl)benzo[d]thiazole-6-carboxamide] | 11%
25 | Cc1cc(C(=O)N[C@H]2CCOc3ccccc32)c(C)c2sc(C3CCNCC3)nc12 [Example 230, (S)-N-(chroman-4-yl)-4,7-dimethyl-2-(piperidin-4-yl)benzo[d]thiazole-6-carboxamide] | 25%
26 | O=C(N[C@H]1CCOc2ccccc21)c1ccc2nc([C@H]3CCCNC3)sc2c1 (single isomer, unassigned) [Example 176] | 1%
27 | CC(C)N1CCN(c2nc3ccc(C(=O)N[C@H]4CCOc5ccccc54)cc3s2)CC1 [Example 74, (S)-N-(chroman-4-yl)-2-(4-isopropylpiperazin-1-yl)benzo[d]thiazole-6-carboxamide] | 8%
28 | CCc1ccc(-c2nc3ccc(C(=O)N[C@H]4CCOc5ccccc54)cc3s2)cn1 [Example 29, (S)-N-(chroman-4-yl)-2-(6-ethylpyridin-3-yl)benzo[d]thiazole-6-carboxamide] | 22%
29 | CC(C)OCCNC(=O)c1ccc2nc(N3C4CCC3CNC4)sc2c1 [Example 278, 2-(3,8-diazabicyclo[3.2.1]octan-8-yl)-N-(2-isopropoxyethyl)benzo[d]thiazole-6-carboxamide] | 18%
30 | CN(C(=O)c1ccc2nc(C3CCNCC3)sc2c1)C1CCCC1 [Example 271, N-cyclopentyl-N-methyl-2-(piperidin-4-yl)benzo[d]thiazole-6-carboxamide] | 27%
31 | CN1C[C@@H]2CN(c3nc4ccc(C(=O)NC5CCCCC5)cc4s3)C[C@@H]2C1 [Example 261, N-cyclohexyl-2-((3aR,6aS)-5-methylhexahydropyrrolo[3,4-c]pyrrol-2 (1H)-yl)benzo[d]thiazole-6-carboxamide] | 3%
